Experimental data reported in the NIST ThermoML archive (doi:10.1021/je500380x).

Test: mn = molality of the nth substance listed, in mol/kg
Conditions: 100 kPa, Liquid; for electrical conductivity: Alternating current cell with electrodes; for viscosity: Falling or rolling sphere viscometry; for mass density: Vibrating tube method

CCC(=O)OCCN1CCNCC1 [2-(piperazin-1-yl)ethyl propionate] + CCO
Conditions | electrical conductivity, 293.15 K [S/m] | electrical conductivity, 298.15 K [S/m] | mass density, 293.15 K [kg/m3] | mass density, 298.15 K [kg/m3] | viscosity, 293.15 K [mPa·s] | viscosity, 298.15 K [mPa·s]
m1 = 0.05 | 0.018 | 0.0186 | 792.31 | 788.01 | 1.231 | 1.12
m1 = 0.1 | 0.0284 | 0.0296 | 795.01 | 790.73 | 1.291 | 1.173
m1 = 0.1985 | 0.0443 | 0.0465 | 800.36 | 796.08 | 1.369 | 1.241
m1 = 0.3005 | 0.0571 | 0.06 | 806.02 | 801.71 | 1.473 | 1.333
m1 = 0.4001 | 0.0671 | 0.071 | 811.4 | 807.14 | 1.577 | 1.424
m1 = 0.5007 | 0.0769 | 0.0816 | 817.08 | – | 1.711 | 1.541
m1 = 0.5998 | 0.0851 | 0.0904 | 822.5 | – | 1.845 | 1.658
m1 = 0.7002 | 0.092 | 0.0977 | 828.2 | – | 2 | 1.793
m1 = 0.8 | 0.0988 | 0.106 | 833.89 | – | 2.198 | 1.967
m1 = 0.8957 | 0.1048 | 0.1123 | 839.61 | – | 2.363 | 2.11
m1 = 1 | 0.1105 | 0.119 | 845.48 | – | 2.582 | 2.298
m1 = 1.198 | 0.119 | 0.129 | 857.06 | – | 3.081 | 2.729
m1 = 1.401 | 0.126 | 0.137 | 869.49 | – | 3.774 | 3.319
m1 = 1.602 | 0.13 | 0.1415 | 881.43 | – | 4.697 | 4.106
m1 = 1.8 | 0.1314 | 0.1443 | 893.69 | – | 5.93 | 5.146
m1 = 2.001 | 0.1308 | 0.1447 | 906.93 | – | 7.934 | 6.811
m1 = 2.198 | 0.127 | 0.1423 | 918.83 | – | 9.733 | 8.295
m1 = 2.397 | 0.121 | 0.138 | 931.94 | – | 12.86 | 10.83
m1 = 2.597 | 0.1137 | 0.1304 | 945.08 | – | 18.8 | 15.64
m1 = 2.796 | 0.106 | 0.1237 | 958.17 | – | 25.23 | 20.7
m1 = 3.006 | 0.0951 | 0.1136 | 972.39 | – | 37.45 | 30.28
